Results: paper PMC6701155, “New perspectives on the plant PARP family: Arabidopsis PARP3 is inactive, and PARP1 exhibits predominant poly (ADP-ribose) polymerase activity in response to DNA damage” (BMC Plant Biology, 2019)

What was measured:
AtPARP1 (TRXH-AtPARP1) = target: T1, AtPARP1 (TRXH-AtPARP1) (Arabidopsis thaliana, UniProt Q9ZP54); assay: auto-PARylation assay, immunoblot with anti-pan-ADPR reagent; assay type: biochemical; settings: 20 mM 3-AB, 1 mM NAD+, 500 nM broken DNA, 25 °C, pH 7.5, Mg2+
T1 construct: gene PARP1; full-length coding region in pET32a(+), N-terminal thioredoxin-His (TRXH) tag kept, E. coli Origami (DE3), nickel-purified
T1 sequence (Q9ZP54 1-983): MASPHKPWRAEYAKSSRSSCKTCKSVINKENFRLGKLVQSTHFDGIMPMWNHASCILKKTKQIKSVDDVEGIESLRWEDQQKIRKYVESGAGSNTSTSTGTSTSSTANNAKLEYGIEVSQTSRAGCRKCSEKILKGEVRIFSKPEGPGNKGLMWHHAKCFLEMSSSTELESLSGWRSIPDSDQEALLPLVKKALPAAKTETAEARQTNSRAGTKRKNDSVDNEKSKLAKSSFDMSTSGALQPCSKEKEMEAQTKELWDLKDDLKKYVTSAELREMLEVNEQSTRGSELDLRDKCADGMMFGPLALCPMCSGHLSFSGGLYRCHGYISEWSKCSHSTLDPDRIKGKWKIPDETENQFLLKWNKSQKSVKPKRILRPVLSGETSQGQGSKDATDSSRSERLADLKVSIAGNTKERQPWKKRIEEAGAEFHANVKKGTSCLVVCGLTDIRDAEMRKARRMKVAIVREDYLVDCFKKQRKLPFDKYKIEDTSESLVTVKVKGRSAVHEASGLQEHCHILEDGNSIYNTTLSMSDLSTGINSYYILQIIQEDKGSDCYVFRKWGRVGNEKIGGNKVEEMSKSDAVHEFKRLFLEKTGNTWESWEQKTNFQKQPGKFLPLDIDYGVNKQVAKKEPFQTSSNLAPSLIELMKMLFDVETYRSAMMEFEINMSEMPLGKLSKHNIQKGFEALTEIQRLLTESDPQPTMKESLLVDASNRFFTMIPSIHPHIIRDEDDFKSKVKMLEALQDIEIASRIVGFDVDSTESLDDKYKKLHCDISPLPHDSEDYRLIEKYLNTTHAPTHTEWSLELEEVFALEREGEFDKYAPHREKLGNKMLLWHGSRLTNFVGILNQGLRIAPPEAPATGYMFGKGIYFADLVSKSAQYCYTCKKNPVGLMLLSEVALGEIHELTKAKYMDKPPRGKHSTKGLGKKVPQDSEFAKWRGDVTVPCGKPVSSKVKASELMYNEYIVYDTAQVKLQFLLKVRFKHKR

AtPARP2 (TRXH-AtPARP2) = target: T2, AtPARP2 (TRXH-AtPARP2) (Arabidopsis thaliana, UniProt Q11207); assay: as above; assay type: biochemical; settings: 1 mM NAD+, 500 nM broken DNA, 25 °C, pH 7.5, Mg2+
T2 construct: gene PARP2; an MBP/MBD fusion was also tested
T2 sequence (Q11207 whole entry, the tested form may be a part): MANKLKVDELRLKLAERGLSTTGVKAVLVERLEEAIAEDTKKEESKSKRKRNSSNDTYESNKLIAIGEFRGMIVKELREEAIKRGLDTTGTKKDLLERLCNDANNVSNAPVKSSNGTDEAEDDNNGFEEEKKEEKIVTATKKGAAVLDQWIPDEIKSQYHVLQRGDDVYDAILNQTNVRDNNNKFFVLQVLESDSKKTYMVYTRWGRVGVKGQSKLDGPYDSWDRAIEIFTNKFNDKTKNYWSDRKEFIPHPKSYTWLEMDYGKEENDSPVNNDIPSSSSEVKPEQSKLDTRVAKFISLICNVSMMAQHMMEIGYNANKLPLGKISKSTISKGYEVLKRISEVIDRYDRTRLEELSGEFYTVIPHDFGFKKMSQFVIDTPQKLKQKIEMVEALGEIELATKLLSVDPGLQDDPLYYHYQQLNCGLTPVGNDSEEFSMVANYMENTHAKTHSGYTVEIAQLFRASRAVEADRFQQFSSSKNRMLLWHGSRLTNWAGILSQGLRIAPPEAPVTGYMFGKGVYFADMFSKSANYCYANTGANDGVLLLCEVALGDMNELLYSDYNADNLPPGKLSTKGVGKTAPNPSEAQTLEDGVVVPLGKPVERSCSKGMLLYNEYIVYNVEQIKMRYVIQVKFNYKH

Row | Compound | auto-PARylation assay, immunoblot with anti-pan-ADPR reagent (AtPARP1 (TRXH-AtPARP1)) | auto-PARylation assay, immunoblot with anti-pan-ADPR reagent (AtPARP2 (TRXH-AtPARP2))
1 | NC(=O)c1cccc(N)c1 [3-AB] | The signal was abolished by the PARP inhibitor 3-AB | 
2 | NC(=O)c1ccc[n+]([C@@H]2O[C@H](COP(=O)(O)OP(=O)(O)OC[C@H]3O[C@@H](n4cnc5c(N)ncnc54)[C@H](O)[C@@H]3O)[C@@H](O)[C@H]2O)c1 [NAD^+] |  | AtPARP2 produced shorter PAR chains than AtPARP1 within the same incubation time periods
